The text below walks through data of patent US12516288B2, “Method for producing enteric neural precursors” (Kyoto University, priority 2018, dated 2026).

Counter-ions that a name gives are not always drawn. Like-named read-outs stand apart in the source and are kept apart here.

The test system of experiment [1] is artificial intestinal tract formed from an intestinal organoid. Briefly: Organ bath assay: contractile and relaxant responses of artificial intestinal tract to electrical stimulation. More on the design: species or system human.
For experiment [2], the system named is vagal neural crest cells. The experiment in a line: Study on composition of enteric neural precursor medium (NRG1 and/or GDNF not added). The class given is cell-based, human. To be noted: for cell proliferation: enteric neural precursor medium without the named factor (factor-free conditions). On the procedure:
The medium was aspirated and replaced with PBS. Then, the cells were detached using a cell scraper. The detached cell mass was dissociated by pipetting in Accutase® (Innovative Cell Technologies, Inc.). Then, MACS® Buffer (Miltenyi Biotec) was added thereto, and the cells were prepared into single cells through a 40 µm cell strainer. The obtained cell suspension was centrifuged at 300×g for 3 minutes. Then, the supernatant was removed, and the cells were suspended in an enteric neural precursor medium. The enteric neural precursor medium used was a mixture of solutions A and B of Stem Fit® AK03N containing 10 μM SB431542 (FUJIFILM Wako Pure Chemical Corp.), 1 μM CHIR99021 (Axon MedChem), 1 μM retinoic acid (FUJIFILM Wako Pure Chemical Corp.), 100 ng/mL neuregulin 1 (NRG1) (PeproTech, Inc.) and […] glial cell-derived neurotrophic factor (GDNF) (FUJIFILM Wako Pure Chemical Corp.). For adherent culture, Matrigel® (Corning Inc.) was added at 2% to the cell suspension, which was then cultured using a multiwell plate (Corning Inc.). For suspension culture, a multiwell plate (Corning Inc.) treated for low cell adhesion was used. The culture in both cases was carried out at 37° C. under 5% CO2.
Vagal neural crest cells were cultured in an enteric neural precursor medium under the same conditions as in Test Example 4 except that NRG1 and/or GDNF was not added to the enteric neural precursor medium. The cells were observed under a fluorescence microscope (BZ-X700, Keyence Corp.). Also, flow cytometry analysis was conducted by the same method as in Test Example 5.

On to `NC1=N[C@H](O)[C@H]2[C@H]3O[C@]4(O)O[C@@H]([C@@H](O)[C@@]2(N1)[C@@H]4O)[C@]3(O)CO` [tetrodotoxin], for which the “cancelation of the contractile response by atropine, phenoxybenzamine or propranolol” value in experiment [1] is recorded as “disappeared”.

`CC(C)NCC(O)COc1cccc2ccccc12` (centres unmarked) [propranolol hydrochloride]: the “contractile response to electrical stimulation” value in experiment [1] (addition of 10 μM, strip of artificial intestinal tract in Krebs solution) was “partially canceled”.

Turning to `COC(=O)[C@@H](N)CCCN=C(N)N[N+](=O)[O-].Cl` [NG-nitro-L-arginine methyl ester hydrochloride], the “relaxant response dependent on electrical stimulation” value in experiment [1] (after atropine, phenoxybenzamine, propranolol, concentration not given) is on record as “disappeared”.

Take `CN1[C@@H]2CC[C@H]1C[C@@H](OC(=O)C(CO)c1ccccc1)C2` (some centres unmarked) [atropine sulfate monohydrate]: in experiment [1], the “contractile response to electrical stimulation” value is recorded as “partially canceled”.

Consider `CC(COc1ccccc1)N(CCCl)Cc1ccccc1` (centres unmarked) [phenoxybenzamine hydrochloride], for which the “contractile response to electrical stimulation” value in experiment [1] is listed as “partially canceled”.

B1: GDNF: factor encoded by GDNF gene; acts as an agonist of GFRα1 and RET (protein, UniProt P39905 78-211, looked up)
Glial cell line-derived …: SPDKQMAVLPRRERNRQAAAANPENSRGKGRRGQRGKNRGCVLTAIHLNVTDLGLGYETKEELIFRYCSGSCDAAETTYDKILKNLSRNRRLVSDKVGQACCRPIAFDDDLSFLDDNLVYHILRKHSAKRCGCI
In the case of B1, the cell proliferation result in experiment [2] is recorded as “slower than that under the conditions involving GDNF”.

B2: NRG1: EGF-like growth factor encoded by NRG1 gene; activates downstream signaling by binding to ERBB3 and ERBB4 (protein, listed as Homo sapiens)
chain: MSERKEGRGKGKGKKKERGSGKKPESAAGSQSPALPPRLKEMKSQESAAGSKLVLRCETSSEYSSLRFKWFKNGNELNRKNKPQNIKIQKKPGKSELRINKASLADSGEYMCKVISKLGNDSASANITIVESNEIITGMPASTEGAYVSSESPIRISVSTEGANTSSSTSTSTTGTSHLVKCAEKEKTFCVNGGECFMVKDLSNPSRYLCKCPNEFTGDRCQNYVMASFYKHLGIEFMEAEELYQKRVLTITGICIALLVVGIMCVVAYCKTKKQRKKLHDRLRQSLRSERNNMMNIANGPHHPNPPPENVQLVNQYVSKNVISSEHIVEREAETSFSTSHYTSTAHHSTTVTQTPSHSWSNGHTESILSESHSVIVMSSVENSRHSSPTGGPRGRLNGTGGPRECNSFLRHARETPDSYRDSPHSERYVSAMTTPARMSPVDFHTPSSPKSPPSEMSPPVSSMTVSMPSMAVSPFMEEERPLLLVTPPRLREKKFDHHPQQFSSFHHNPAHDSNSLPASPLRIVEDEEYETTQEYEPAQEPVKKLANSRRAKRTKPNGHIANRLEVDSNTSSQSSNSESETEDERVGEDTPFLGIQNPLAASLEATPAFRLADSRTNPAGRFSTQEEIQARLSSVIANQDPIAV
On to B2, for which the “cell number necessary for conducting flow cytometry” value in experiment [2] (enteric neural precursor medium without the named factor) is “not obtained”. The cell proliferation entry in experiment [2] is “very slow”.
